Test results: patent publication US20260167619A2, “INDOLINE COMPOUNDS AND DERIVATIVES AS EGFR INHIBITORS” (BeOne Medicines I GmbH, priority 2020, published 2026)

How the values were obtained:
[1] = biological target: BaF3-WT cells (Homo sapiens, UniProt P00533); test: Cell antiproliferation assay (CellTiter-Glo), BaF3-WT; type: cell-based; conditions: 48 h treatment, read-out: BaF3-WT IC50
How it was run: (§1)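 Cells exposed 48 h to 8 doses from 5-fold serial dilution (500× DMSO stocks from 5 mM), final 0.2% DMSO. Viability by CellTiter-Glo luminescence; IC50 from four-parameter fit of percent inhibition versus concentration.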

[2] = biological target: BaF3-Del_TM_CS cells (Homo sapiens, UniProt P00533, T790M/C797S, cells depend on it, form not given); test: Cell antiproliferation assay (CellTiter-Glo), BaF3-Del_TM_CS; type: cell-based; conditions: 48 h treatment, read-out: BaF3-Del_TM_CS IC50
BaF3-Del_TM_CS cells, sequence (P00533 with tags, fused parts or gaps DEL746-750/T790M/C797S, form open): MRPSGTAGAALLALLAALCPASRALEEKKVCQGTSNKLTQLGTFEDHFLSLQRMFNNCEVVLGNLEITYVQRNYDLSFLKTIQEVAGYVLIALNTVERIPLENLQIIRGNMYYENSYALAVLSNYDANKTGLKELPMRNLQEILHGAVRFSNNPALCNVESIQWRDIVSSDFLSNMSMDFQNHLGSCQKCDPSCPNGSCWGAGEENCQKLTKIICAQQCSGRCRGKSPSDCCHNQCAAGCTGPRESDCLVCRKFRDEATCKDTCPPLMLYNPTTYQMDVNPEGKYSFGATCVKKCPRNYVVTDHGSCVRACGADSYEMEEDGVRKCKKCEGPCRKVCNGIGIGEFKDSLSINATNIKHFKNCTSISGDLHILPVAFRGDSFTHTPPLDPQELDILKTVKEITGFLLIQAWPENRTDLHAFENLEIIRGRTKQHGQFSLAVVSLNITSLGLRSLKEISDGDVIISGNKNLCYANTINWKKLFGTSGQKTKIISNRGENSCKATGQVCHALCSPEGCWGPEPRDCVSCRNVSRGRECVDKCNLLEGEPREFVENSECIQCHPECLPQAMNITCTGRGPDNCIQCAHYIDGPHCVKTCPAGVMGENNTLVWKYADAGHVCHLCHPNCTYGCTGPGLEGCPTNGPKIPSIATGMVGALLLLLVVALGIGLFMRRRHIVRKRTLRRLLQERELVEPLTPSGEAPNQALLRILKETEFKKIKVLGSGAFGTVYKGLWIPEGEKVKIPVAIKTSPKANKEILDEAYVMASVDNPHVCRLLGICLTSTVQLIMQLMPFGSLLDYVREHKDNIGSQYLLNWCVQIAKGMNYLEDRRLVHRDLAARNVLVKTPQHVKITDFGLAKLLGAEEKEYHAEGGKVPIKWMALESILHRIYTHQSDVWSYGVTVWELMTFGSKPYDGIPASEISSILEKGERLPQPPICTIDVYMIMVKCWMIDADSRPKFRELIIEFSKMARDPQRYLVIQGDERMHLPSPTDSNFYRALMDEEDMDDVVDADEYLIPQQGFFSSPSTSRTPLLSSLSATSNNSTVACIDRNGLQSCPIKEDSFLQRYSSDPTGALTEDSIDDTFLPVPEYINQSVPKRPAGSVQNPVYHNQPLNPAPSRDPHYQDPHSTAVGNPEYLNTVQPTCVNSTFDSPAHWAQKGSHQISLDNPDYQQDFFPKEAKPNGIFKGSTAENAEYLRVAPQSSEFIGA
How it was run: as §1

[3] = biological target: BaF3-LR_TM_CS cells (Homo sapiens, UniProt P00533, T790M/C797S/L858R, cells depend on it); test: Cell antiproliferation assay (CellTiter-Glo), BaF3-LR_TM_CS; type: cell-based; conditions: 48 h treatment, read-out: BaF3-LR_TM_CS IC50
How it was run: as §1

[4] = biological target: EGFR(Dell9_T790M_C797S) (aa 669-1210, in house) (Homo sapiens, UniProt P00533, T790M/C797S, form not given); test: Biochemical EGFR inhibition assay (TR-FRET), Del19/T790M/C797S mutant; conditions: ATP at Km, 15 min pre-incubation, 60 min reaction; read-out: Del_TM_CS (Km ATP) IC50
EGFR(Dell9_T790M_C797S) (aa 669-1210, in house), sequence (P00533 with tags, fused parts or gaps DEL746-750/T790M/C797S, form open): as above
How it was run: (§2)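 Recombinant kinase pre-incubated with compound 15 min at room temperature in 50 mM HEPES pH7.5, 10 mM MgCl2, 2 mM DTT, 1 mM EGTA, 0.1% BSA, 0.01% Tween-20; reaction started with ATP at Km plus biotin-poly GT, run 60 min at RT. HTRF read (665/620 nm); IC50 from four-parameter logistic fit.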

[5] = biological target: T1, EGFR (aa668-1210, Invitrogen) (Homo sapiens, UniProt P00533); test: Biochemical EGFR inhibition assay (TR-FRET), wild-type EGFR; conditions: ATP at Km, 15 min pre-incubation, 60 min reaction; read-out: WT (Km ATP) IC50
T1 construct: EGFR (aa668-1210, Invitrogen); purchased Invitrogen
T1 sequence (P00533 668-1210): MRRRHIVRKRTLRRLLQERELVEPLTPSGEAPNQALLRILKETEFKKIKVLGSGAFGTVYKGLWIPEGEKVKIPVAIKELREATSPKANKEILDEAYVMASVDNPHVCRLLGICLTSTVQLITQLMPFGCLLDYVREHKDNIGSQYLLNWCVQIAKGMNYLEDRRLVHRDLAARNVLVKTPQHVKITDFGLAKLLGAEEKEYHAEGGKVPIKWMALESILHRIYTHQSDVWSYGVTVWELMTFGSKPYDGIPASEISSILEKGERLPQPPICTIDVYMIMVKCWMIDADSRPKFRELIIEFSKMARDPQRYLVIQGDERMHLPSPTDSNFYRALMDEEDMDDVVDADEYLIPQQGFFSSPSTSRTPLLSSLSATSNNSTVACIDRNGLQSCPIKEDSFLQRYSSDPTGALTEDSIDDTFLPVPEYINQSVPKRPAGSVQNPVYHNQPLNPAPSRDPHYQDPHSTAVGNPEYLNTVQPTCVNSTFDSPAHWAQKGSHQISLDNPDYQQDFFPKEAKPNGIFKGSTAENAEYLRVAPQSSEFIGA
How it was run: as §2

[6] = biological target: T2, EGFR(L858R_T790M_C797S) (aa695-end, Invitrogen) (Homo sapiens, UniProt P00533, C797S/L858R/T790M); test: Biochemical EGFR inhibition assay (TR-FRET), L858R/T790M/C797S mutant; conditions: ATP at Km, 15 min pre-incubation, 60 min reaction; read-out: LR_TM_CS (Km ATP) IC50
T2 construct: purchased Invitrogen
T2 sequence (P00533 695-1210 T790M/C797S/L858R): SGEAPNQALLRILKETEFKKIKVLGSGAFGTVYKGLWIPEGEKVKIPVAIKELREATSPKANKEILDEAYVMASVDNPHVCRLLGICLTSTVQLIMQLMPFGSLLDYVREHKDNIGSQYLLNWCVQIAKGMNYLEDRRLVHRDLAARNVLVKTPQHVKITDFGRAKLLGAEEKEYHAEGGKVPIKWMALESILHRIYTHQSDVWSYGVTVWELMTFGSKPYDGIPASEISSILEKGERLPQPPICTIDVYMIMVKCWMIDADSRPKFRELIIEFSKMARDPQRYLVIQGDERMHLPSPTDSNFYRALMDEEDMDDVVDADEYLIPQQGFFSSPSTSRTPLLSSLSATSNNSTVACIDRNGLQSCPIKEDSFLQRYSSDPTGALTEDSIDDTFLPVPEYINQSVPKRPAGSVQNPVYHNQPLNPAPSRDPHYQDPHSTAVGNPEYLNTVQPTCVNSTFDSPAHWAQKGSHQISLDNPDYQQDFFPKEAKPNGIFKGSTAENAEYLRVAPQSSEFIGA
How it was run: as §2

BaF3-WT cells, sequence (P00533 whole entry, change not shown): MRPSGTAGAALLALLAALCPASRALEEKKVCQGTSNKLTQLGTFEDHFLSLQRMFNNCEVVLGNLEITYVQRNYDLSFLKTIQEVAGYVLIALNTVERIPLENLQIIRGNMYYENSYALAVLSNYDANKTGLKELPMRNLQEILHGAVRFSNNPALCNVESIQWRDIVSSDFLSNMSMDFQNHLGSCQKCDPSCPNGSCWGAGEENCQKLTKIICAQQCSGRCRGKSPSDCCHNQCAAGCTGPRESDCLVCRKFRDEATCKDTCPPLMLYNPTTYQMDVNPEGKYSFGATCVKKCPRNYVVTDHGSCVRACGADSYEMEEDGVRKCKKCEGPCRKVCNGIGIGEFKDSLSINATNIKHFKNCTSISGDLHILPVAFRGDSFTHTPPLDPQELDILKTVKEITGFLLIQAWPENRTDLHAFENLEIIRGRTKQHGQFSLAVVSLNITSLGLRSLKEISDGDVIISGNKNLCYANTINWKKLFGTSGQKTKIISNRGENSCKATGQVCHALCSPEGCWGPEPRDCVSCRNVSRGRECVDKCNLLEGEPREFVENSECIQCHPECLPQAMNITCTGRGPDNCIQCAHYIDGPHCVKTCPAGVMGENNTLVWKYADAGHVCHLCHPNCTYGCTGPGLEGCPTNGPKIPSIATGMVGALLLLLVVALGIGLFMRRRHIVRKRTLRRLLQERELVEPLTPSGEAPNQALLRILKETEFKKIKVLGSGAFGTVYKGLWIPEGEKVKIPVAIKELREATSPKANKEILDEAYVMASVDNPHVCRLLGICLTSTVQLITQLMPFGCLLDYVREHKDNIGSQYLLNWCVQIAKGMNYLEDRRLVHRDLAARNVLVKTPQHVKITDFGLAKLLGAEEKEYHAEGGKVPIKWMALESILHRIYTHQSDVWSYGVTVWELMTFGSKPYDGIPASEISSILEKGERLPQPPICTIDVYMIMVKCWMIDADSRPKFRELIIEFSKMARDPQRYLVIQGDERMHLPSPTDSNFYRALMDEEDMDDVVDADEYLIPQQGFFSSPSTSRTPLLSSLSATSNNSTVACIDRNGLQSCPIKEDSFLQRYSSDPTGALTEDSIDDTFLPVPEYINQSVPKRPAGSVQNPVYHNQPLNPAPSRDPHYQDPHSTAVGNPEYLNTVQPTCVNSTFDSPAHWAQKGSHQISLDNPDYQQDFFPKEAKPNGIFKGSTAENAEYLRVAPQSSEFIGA

| SMILES | GI50 [1] [nM] | GI50 [2] [nM] | GI50 [3] [nM] | IC50 [4] [nM] | IC50 [5] [nM] | IC50 [6] [nM] |
| --- | --- | --- | --- | --- | --- | --- |
| COc1cc(N2CCC(N3CCN(C)CC3)CC2)ccc1Nc1ncc(Cl)c(Nc2cc(C)cc3c2N(S(C)(=O)=O)CC3)n1 [Example 5, 5-chloro-N^2-(2-methoxy-4-(4-(4-methylpiperazin-1-yl)piperidin-1-yl)phenyl)-N^4-(5-methyl-1-(methylsulfonyl)indolin-7-yl)pyrimidine-2,4-diamine] | 2320 | 971 | 1290 | 159 | 311 | 162 |
| COc1cc(N2CC3(CN(C)C3)C2)c(F)cc1Nc1nc(Nc2cccc3c2N(S(C)(=O)=O)CC3)c2cc[nH]c2n1 [Example 97, N^2-(5-fluoro-2-methoxy-4-(6-methyl-2,6-diazaspiro[3.3]heptan-2-yl)phenyl)-N^4-(1-(methylsulfonyl)indolin-7-yl)-7H-pyrrolo[2,3-d]pyrimidine-2,4-diamine] | 1930 | 104 | 240 | 4.3 | 206 | 2.4 |
| CCN1CCN(C2CCN(c3ccc(Nc4nc(Nc5cccc6c5N(S(C)(=O)=O)CC6)c5cc[nH]c5n4)cc3F)CC2)CC1 [Example 77, N^2-(4-(4-(4-ethylpiperazin-1-yl)piperidin-1-yl)-3-fluorophenyl)-N^4-(1-(methylsulfonyl)indolin-7-yl)-7H-pyrrolo[2,3-d]pyrimidine-2,4-diamine] | 388 | 8.3 | 62 | 0.33 | 18 | 0.29 |
| COc1cc(N2CCC3(CC2)CN(C)C3)c(C)cc1Nc1nc(Nc2cccc3c2N(S(C)(=O)=O)CC3)c2cc[nH]c2n1 [Example 100, N^2-(2-methoxy-5-methyl-4-(2-methyl-2,7-diazaspiro[3.5]nonan-7-yl)phenyl)-N^4-(1-(methylsulfonyl)indolin-7-yl)-7H-pyrrolo[2,3-d]pyrimidine-2,4-diamine] | 1590 | 39.9 | 116 | 1 | 49 | 0.92 |
| CN1CCN(C2CCN(c3ccc(Nc4nc(Nc5cccc6c5N(S(C)(=O)=O)CC6)c5cc[nH]c5n4)c4c3CCO4)CC2)CC1 [Example 125, N^2-(4-(4-(4-methylpiperazin-1-yl)piperidin-1-yl)-2,3-dihydrobenzofuran-7-yl)-N^4-(1-(methylsulfonyl)indolin-7-yl)-7H-pyrrolo[2,3-d]pyrimidine-2,4-diamine] | 394 | 38.3 | 61.3 | 1.6 | 106 | 1.2 |
| COc1cc(N2CCN(C)[C@H](C)C2)c(C)cc1Nc1nc(Nc2cccc3c2N(S(C)(=O)=O)CC3)c2cc[nH]c2n1 [Example 107, (R)—N2-(4-(3,4-dimethylpiperazin-1-yl)-2-methoxy-5-methylphenyl)-N4-(1-(methylsulfonyl)indolin-7-yl)-7H-pyrrolo[2,3-d]pyrimidine-2,4-diamine] | 1960 | 60.8 | 105 | 7.1 | 417 | 4.8 |
| COc1cc(N2CCC(N3CCN(C)CC3)CC2)ccc1Nc1ncc(Cl)c(Nc2cccc3c2N(S(=O)(=O)N(C)C)CC3)n1 [Example 13, 7-((5-chloro-2-((2-methoxy-4-(4-(4-methylpiperazin-1-yl)piperidin-1-yl)phenyl)amino)pyrimidin-4-yl)amino)-N,N-dimethylindoline-1-sulfonamide] | 897 | 158 | 294 | 6.2 | 13 | 1.3 |
| COc1cc(N2CCC(N3CCN(C)CC3)CC2)ccc1Nc1ncc(Cl)c(Nc2cccc3c2N(S(C)(=O)=O)CCC3)n1 [Example 10, 5-chloro-N^2-(2-methoxy-4-(4-(4-methylpiperazin-1-yl)piperidin-1-yl)phenyl)-N^4-(1-(methylsulfonyl)-1,2,3,4-tetrahydroquinolin-8-yl)pyrimidine-2,4-diamine] | 1870 | 46 | 143 | 0.39 | 2.6 | 1.5 |
| CCOc1cc(N2CCC(N3CCN(C)CC3)CC2)c(C)cc1Nc1nc(Nc2cccc3c2N(S(C)(=O)=O)CC3)c2cc[nH]c2n1 [Example 93, N^2-(2-ethoxy-5-methyl-4-(4-(4-methylpiperazin-1-yl)piperidin-1-yl)phenyl)-N^4-(1-(methylsulfonyl)indolin-7-yl)-7H-pyrrolo[2,3-d]pyrimidine-2,4-diamine] | 1520 | 54.1 | 218 | 2.6 | 110 | 1.5 |
